Reference: patent US12441726B2, “Compounds and uses thereof” (Foghorn Therapeutics Inc., priority 2020, dated 2025)

Assays:
BRG-1 = BRG-1 (Homo sapiens, UniProt P51532); assay: ATPase catalytic activity assay (ADP-Glo), BRG-1; settings: for Emax: 1 h, read-out: BRG1 Max % Inhibition, ADP-Glo, 30 nM BRG-1, 400 μM ATP
BRM = BRM (Homo sapiens, UniProt P51531); assay: ATPase catalytic activity assay (ADP-Glo), BRM; settings: 30 nM BRM, 400 μM ATP; for IC50: BRM ATPase: IC50 (uM)
Sequence of BRM (P51531 whole entry): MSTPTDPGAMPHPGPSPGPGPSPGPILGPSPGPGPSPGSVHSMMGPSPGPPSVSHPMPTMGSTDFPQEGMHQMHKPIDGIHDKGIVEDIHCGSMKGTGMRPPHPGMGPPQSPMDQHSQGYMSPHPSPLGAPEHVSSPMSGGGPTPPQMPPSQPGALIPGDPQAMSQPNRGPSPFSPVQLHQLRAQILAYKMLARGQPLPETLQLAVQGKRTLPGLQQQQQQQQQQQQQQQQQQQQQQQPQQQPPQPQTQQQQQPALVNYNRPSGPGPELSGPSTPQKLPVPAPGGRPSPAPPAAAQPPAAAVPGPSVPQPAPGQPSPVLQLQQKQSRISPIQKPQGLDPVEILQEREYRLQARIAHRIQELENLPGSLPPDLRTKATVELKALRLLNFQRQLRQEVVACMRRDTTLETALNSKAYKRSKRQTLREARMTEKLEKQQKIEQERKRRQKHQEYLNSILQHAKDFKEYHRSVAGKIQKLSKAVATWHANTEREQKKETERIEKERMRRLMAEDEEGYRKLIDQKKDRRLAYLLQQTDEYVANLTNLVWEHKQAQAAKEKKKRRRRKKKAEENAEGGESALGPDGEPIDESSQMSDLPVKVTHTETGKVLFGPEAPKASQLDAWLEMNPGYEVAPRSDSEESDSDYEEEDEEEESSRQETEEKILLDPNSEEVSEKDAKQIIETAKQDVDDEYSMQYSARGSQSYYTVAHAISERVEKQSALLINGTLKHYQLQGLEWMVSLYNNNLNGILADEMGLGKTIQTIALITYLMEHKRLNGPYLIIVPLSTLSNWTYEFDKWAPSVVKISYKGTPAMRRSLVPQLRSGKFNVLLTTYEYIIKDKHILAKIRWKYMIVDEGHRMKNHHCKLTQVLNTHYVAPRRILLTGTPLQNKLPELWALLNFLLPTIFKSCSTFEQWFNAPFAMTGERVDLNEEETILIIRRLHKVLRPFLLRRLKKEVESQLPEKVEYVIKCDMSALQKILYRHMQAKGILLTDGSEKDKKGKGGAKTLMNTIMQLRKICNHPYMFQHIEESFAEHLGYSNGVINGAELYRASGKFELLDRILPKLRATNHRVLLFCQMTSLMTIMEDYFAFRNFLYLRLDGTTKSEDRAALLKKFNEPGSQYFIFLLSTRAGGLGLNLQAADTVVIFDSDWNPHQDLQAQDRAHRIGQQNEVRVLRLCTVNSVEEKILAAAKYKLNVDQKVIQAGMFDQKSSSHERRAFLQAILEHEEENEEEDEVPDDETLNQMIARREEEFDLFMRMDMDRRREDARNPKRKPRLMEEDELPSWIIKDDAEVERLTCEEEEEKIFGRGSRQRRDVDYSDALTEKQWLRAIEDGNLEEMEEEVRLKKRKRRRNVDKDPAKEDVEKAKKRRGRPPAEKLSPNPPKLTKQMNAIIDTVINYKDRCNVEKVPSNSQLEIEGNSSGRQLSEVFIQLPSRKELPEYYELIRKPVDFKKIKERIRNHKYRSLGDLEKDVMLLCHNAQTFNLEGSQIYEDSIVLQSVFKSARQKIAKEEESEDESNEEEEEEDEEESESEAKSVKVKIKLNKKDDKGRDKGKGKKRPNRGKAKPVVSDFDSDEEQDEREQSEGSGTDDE

Sequence of BRG-1 (P51532 whole entry): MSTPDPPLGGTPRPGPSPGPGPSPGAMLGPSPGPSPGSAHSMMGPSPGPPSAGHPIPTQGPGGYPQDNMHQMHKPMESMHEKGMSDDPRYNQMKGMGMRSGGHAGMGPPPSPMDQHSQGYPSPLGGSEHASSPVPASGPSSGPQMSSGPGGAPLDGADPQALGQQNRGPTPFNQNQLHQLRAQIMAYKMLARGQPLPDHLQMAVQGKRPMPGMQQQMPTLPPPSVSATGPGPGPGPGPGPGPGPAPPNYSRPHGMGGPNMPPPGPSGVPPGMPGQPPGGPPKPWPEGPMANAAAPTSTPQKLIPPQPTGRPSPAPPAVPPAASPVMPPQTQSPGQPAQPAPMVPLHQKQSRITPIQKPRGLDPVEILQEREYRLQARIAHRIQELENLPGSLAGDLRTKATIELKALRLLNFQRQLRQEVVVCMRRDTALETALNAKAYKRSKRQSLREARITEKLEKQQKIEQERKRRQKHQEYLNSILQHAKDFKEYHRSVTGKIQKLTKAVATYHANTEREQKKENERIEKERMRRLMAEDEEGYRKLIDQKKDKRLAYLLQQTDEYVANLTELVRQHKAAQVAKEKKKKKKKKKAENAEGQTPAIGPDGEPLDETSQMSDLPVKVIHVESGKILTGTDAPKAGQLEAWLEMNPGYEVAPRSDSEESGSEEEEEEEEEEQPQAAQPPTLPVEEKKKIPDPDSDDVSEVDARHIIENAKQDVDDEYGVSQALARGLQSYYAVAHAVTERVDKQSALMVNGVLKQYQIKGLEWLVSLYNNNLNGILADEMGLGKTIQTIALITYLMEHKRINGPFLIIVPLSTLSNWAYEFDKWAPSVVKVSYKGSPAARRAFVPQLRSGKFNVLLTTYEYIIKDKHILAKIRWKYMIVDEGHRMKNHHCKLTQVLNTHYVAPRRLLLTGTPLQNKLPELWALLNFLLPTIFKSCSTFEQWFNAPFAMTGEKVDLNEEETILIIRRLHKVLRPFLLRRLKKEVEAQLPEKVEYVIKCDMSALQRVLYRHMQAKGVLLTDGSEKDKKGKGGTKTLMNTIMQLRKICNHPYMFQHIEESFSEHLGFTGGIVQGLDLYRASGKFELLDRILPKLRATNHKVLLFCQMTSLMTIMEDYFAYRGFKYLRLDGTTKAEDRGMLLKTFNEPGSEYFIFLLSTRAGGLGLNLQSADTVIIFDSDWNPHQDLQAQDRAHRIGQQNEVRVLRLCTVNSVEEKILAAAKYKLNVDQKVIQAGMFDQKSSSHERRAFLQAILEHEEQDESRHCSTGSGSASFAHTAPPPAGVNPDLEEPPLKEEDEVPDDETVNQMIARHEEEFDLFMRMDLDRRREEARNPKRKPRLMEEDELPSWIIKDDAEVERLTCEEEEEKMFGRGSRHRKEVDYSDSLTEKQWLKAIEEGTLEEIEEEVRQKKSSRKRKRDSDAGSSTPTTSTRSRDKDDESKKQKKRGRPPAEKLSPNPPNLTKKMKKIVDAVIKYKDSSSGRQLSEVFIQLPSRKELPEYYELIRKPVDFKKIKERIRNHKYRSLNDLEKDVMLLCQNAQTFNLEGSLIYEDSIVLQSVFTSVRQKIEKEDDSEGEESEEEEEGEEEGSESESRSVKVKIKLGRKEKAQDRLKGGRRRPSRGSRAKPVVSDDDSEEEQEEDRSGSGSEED

Structure (SMILES)	IC50 (BRG-1) [nM]	Emax (BRG-1) [%]	BRM Max % Inhibition (BRM) [%]	IC50 (BRM) [µM]
COc1nn(C2COC2)cc1-c1ccc2cnc(CNC(=O)c3ccc4c(c3)[C@](C)(F)COC4)cc2n1 [Compound 201]	500 to 1000	76	99	< 0.1
C[C@@]1(C#N)COCc2ncc(C(=O)NCc3cc4nc(-c5cccc(C6CC6)c5)ccc4nn3)cc21 [Compound 198]	500 to 1000	76	94	0.1 to 0.5
COC(=O)c1cccc(C#Cc2ccnc(CNC(=O)c3ccc4c(c3)[C@](C)(O)COC4)c2)c1 [Compound 23]	> 1000	35	85	0.5 to 1
C[C@@]1(C#N)COCc2ccc(C(=O)NCc3cc4c(cn3)CCN(c3cccc(N5CCC5)n3)C4)cc21 [Compound 402]	500 to 1000	74	96	< 0.1
Cc1nn(C2COC2)cc1-c1ccc2cnc(CNC(=O)c3ccc4c(c3)[C@](C)(C#N)COC4)cc2n1 [Compound 188]	> 1000	41	93	0.1 to 0.5
COc1cnn(C)c1-c1ccc2cnc(CNC(=O)c3ccc4c(c3)[C@](C)(C#N)COC4)cc2n1 [Compound 297]	500 to 1000	66	96	0.1 to 0.5
C[C@@]1(C#N)COCc2ccc(C(=O)NCc3cc4nc(-c5cn(C6COC6)nc5C(F)F)ccc4cn3)cc21 [Compound 145]	500 to 1000	65	94	0.1 to 0.5
C[C@@]1(C#N)COCc2ccc(C(=O)NCc3cc4c(cn3)CCN(c3ccnc(N5CCOCC5)n3)C4)cc21 [Compound 330]	500 to 1000	64	93	0.1 to 0.5
C[C@@]1(C#N)COCc2ccc(C(=O)NCc3cc4nc(-c5ccnc(C(F)F)n5)ccc4cn3)cc21 [Compound 358]	500 to 1000	67	92	0.1 to 0.5
O=C(NCc1cc(C#Cc2ccccc2)ccn1)c1cccc(C2(C(F)F)COC2)c1 [Compound 13]	> 1000	44	84	> 1
Cn1ncc2cc(-c3ccc4cnc(CNC(=O)c5ccc6c(c5)[C@](C)(C#N)COC6)cc4n3)ccc21 [Compound 105]	500 to 1000	87	98	< 0.1
C[C@@]1(F)COCc2ccc(C(=O)NCc3cc4nc(-c5cccc(C6(O)COC6)n5)ccc4cn3)cc21 [Compound 160]	500 to 1000	62	93	0.1 to 0.5
COC1(c2cccc(-c3ccc4cnc(CNC(=O)c5ccc6c(c5)[C@](C)(C#N)COC6)cc4n3)n2)COC1 [Compound 419]	500 to 1000	64	93	0.1 to 0.5
C[C@@]1(C#N)COCc2ccc(C(=O)NCc3cc4nc(N5CCN(C6CC6)C5=O)ccc4cn3)cc21 [Compound 312]	> 1000	46	83	0.1 to 0.5
C[C@@]1(F)COCc2ccc(C(=O)NCc3cc4nc(-c5ccnc(C6CC6)n5)sc4cn3)cc21 [Compound 199]	> 1000	14	85	0.1 to 0.5

Second part, the compound after the results:

IC50 (BRG-1) [nM]	Emax (BRG-1) [%]	BRM Max % Inhibition (BRM) [%]	IC50 (BRM) [µM]	Structure (SMILES)
100 to 500	90	97	< 0.1	C[C@@]1(F)COCc2ncc(C(=O)NCc3cc4nc(-c5ccnc(N6CCC6)c5F)cnc4cn3)cc21 [Compound 215]
500 to 1000	76	108	0.1 to 0.5	COCCNC(=O)c1ccc(-c2ccc3cnc(CNC(=O)c4ccc5c(c4)[C@](C)(C#N)COC5)cc3n2)cc1 [Compound 323]
100 to 500	91	101	< 0.1	COc1ncccc1-c1ccc2cnc(CNC(=O)c3ccc4c(c3)[C@](C)(C#N)COC4)cc2n1 [Compound 488]
500 to 1000	72	96	0.1 to 0.5	Cc1cnn(-c2ccc3cnc(CNC(=O)c4ccc5c(c4)[C@](C)(C#N)COC5)cc3n2)c1 [Compound 505]
100 to 500	93	98	< 0.1	C[C@@]1(C#N)COCc2ccc(C(=O)NCc3cc4nc(-n5cc(F)c(N6CCC6)n5)ccc4cn3)cc21 [Compound 425]
500 to 1000	67	83	0.1 to 0.5	C[C@@]1(F)COCc2ccc(C(=O)NCc3cc4nc(N5CCN(C6CC6)S5(=O)=O)ccc4cn3)cc21 [Compound 279]
500 to 1000	99	99	< 0.1	CN1CCC(C(=O)N2CCN(c3cccc(-c4ccc5cnc(CNC(=O)c6ccc7c(c6)[C@](C)(C#N)COC7)cc5n4)n3)CC2)CC1 [Compound 287]
100 to 500	97	104	< 0.1	C[C@@]1(F)COCc2c(F)cc(C(=O)NCc3cc4cc(-c5cncc(N6CCC6)n5)ccc4cn3)cc21 [Compound 269]
100 to 500	95	101	< 0.1	C[C@@]1(C#N)COCc2ccc(C(=O)NCc3cc4nc(-c5cn(C6COC6)nc5OC(F)F)ccc4cn3)cc21 [Compound 154]
100 to 500	80	97	< 0.1	C[C@@]1(C#N)COCc2ccc(C(=O)NCc3cc4nc(-c5ccc6ccc(=O)n(C7CC7)c6n5)ccc4cn3)cc21 [Compound 165]
< 100	99	104	< 0.1	CO[C@H]1CCN(c2cncc(-c3ccc4cnc(CNC(=O)c5ccc6c(c5)[C@](C)(F)COC6)cc4c3)n2)C1 [Compound 265]
100 to 500	94	100	< 0.1	Cn1c(C(F)F)cc2c(-c3ccc4cnc(CNC(=O)c5ccc6c(c5)[C@](C)(C#N)COC6)cc4n3)cccc21 [Compound 139]
100 to 500	86	96	< 0.1	C[C@@]1(F)COCc2ncc(C(=O)NCc3cc4nc(-c5cncc(C6CC6)n5)ccc4cn3)cc21 [Compound 301]
100 to 500	75	96	0.1 to 0.5	C[C@@]1(C#N)COCc2ccc(C(=O)NCc3cc4c(cn3)CCN(c3ccnc(N5CCC5)c3F)C4)cc21 [Compound 258]
100 to 500	96	103	< 0.1	C[C@@]1(F)COCc2ccc(C(=O)NCc3cc4cc(-c5cncc(N6CCC6)n5)ccc4cn3)cc21 [Compound 370]
100 to 500	90	96	< 0.1	C[C@@]1(C#N)COCc2ccc(C(=O)NCc3cc4nc(-c5ccc(C(F)F)cc5)ccc4cn3)cc21 [Compound 519]
100 to 500	89	98	< 0.1	C[C@@]1(F)COCc2ccc(C(=O)NCc3cc4nc(-c5ccnc(N6CCC6)c5F)cnc4cn3)cc21 [Compound 207]
